Experiments:
human κ opioid receptors = molecular target: T1, human κ opioid receptors (Homo sapiens, UniProt P41145); assay: Opioid receptor function test (Lance Ultra cAMP kit, agonist activity); type: cell-based; conditions: CHO cells expressing human κ opioid receptors, 10 μM forskolin, 30 minutes
T1 construct: host or cells: CHO cells
Method in brief: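 CHO cells expressing human κ opioid receptor incubated 30 min with test compound (10^−14 to 10^−7 M) and 10 μM forskolin in HSS/5 mM HEPES pH 7.4 with 0.5 mM IBMX and 0.1% SA. cAMP measured by TR-FRET (Lance Ultra) 1 h after detection reagent addition.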

Metabolic stability test = type: in vitro ADME; conditions: human liver microsomes, 0 to 30 minutes; a hydrochloride was used
Method: To determine the unchanged product-residual ratio of the test compound in the reaction sample, human liver microsomes and the test compound were reacted for a predetermined time (0 to 30 minutes). The unchanged product-residual ratio at a reaction time of 0 hours was considered 100%, the residual ratio after incubation was log-linear plotted with respect to the time, a regression line (y=100 e^−kt, k=slope of the line: elimination rate constant) was determined, and the metabolic clearance CLint (mL/min/kg) was calculated using the following formula.
CLint*=k (−min)×45 (mg MS protein/g liver)×21 (g liver/kg)/MS protein (mg MS protein/mL)
*: Yamazaki S.; Skaptason J.; Romero D, Vekich S.; Jones HM.; Tan W.; Wilner KD.; Koudriakova T. Drug Metab. Dispos. 2011 March; 39 (3): 383-393.

ICR male mice = assay: Mouse acetic acid writhing test; type: in vivo; conditions: hydrochloride
Method: Mouse Acetic Acid Writhing Test
The analgesic effect of the test compound was evaluated by an acetic acid writhing test. For the experiment, ICR male mice were used and acclimated to a plastic open field for 30 minutes before starting the test. After acclimation, the mice were administered with the test compound (30 to 3000 μg/kg) or water for injection subcutaneously or orally, and once returned to the open field. Thirty minutes after the administration of the test compound, a 0.6% aqueous acetic acid solution was additionally administered to the same mice by intraperitoneal administration. From 10 minutes after administration of the 0.6% aqueous acetic acid solution, the number of writhing reactions (writhing reactions in which the mouse stretches while pressing the abdominal cavity against the floor) induced in the mice was measured for 10 minutes, and the number of writhing reactions was compared with that of a control group (water for injection-administrated group) to evaluate the analgesic effect of the test compound.

T1 sequence (P41145 whole entry): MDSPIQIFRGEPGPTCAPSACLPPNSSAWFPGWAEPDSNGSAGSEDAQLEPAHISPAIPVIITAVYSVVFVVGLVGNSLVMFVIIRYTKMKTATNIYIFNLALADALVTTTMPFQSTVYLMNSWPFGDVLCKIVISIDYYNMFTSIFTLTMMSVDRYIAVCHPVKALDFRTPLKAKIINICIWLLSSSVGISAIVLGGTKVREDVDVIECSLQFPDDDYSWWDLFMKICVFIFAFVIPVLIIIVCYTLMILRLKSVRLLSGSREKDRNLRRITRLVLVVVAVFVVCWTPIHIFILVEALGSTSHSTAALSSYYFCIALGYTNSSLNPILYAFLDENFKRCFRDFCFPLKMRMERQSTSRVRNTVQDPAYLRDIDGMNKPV

SMILES: Cc1cnn(CCN2CC[C@]34CCN(CC5CC5)[C@H](Cc5ccc(C(N)=O)cc53)[C@]4(O)CC2)c1 [Example 244, (5aS,6R,11bS)-14-(cyclopropylmethyl)-5a-hydroxy-3-(2-(4-methyl-1H-pyrazol-1-yl)ethyl)-1,2,3,4,5,5a,6,7-octahydro-6,11b-(epiminoethano)naphtho[1,2-d]azepine-10-carboxamide]
- EC50 (human κ opioid receptors): 470 pM
- CLint scaled (Metabolic stability test): 7.7 mL/min/kg

SMILES: Oc1ccc2c(c1)[C@@]13CCN(CCc4nccs4)CC[C@@]1(O)[C@@H](C2)N(CC1CC1)CC3 [Example 31, (5aS,6R,11bS)-14-(cyclopropylmethyl)-3-(2-(thiazol-2-yl)ethyl)-2,3,4,5,6,7-hexahydro-6,11b-(epiminoethano)naphtho[1,2-d]azepine-5a,10(1H)-diol]
- EC50 (human κ opioid receptors): 110 pM
- CLint scaled (Metabolic stability test): 7.5 mL/min/kg

SMILES: Oc1ccc2c(c1)[C@@]13CCN(CCc4cscn4)CC[C@@]1(O)[C@@H](C2)N(CC1CC1)CC3 [Example 34, (5aS,6R,11bS)-14-(cyclopropylmethyl)-3-(2-(thiazol-4-yl)ethyl)-2,3,4,5,6,7-hexahydro-6,11b-(epiminoethano)naphtho[1,2-d]azepine-5a,10(1H)-diol]
- EC50 (human κ opioid receptors): 40 pM
- Writhing suppression rate (ICR male mice; Subcutaneous, dose 30 (μg/kg)): ++ (60 ≤ % <80: ++)

SMILES: O=C(Cc1ccccn1)N1CC[C@]23CCN(CC4CC4)[C@H](Cc4cc(Cl)c(O)cc42)[C@]3(O)CC1 [Example 308, 1-((5aS,6R,11bR)-9-chloro-14-(cyclopropylmethyl)-5a,10-dihydroxy-1,2,5,5a,6,7-hexahydro-6,11b-(epiminoethano)naphtho[1,2-d]azepin-3(4H)-yl)-2-(pyridin-2-yl)ethan-1-one]
- EC50 (human κ opioid receptors): 600 pM
- ED50 (ICR male mice; Mus musculus, Oral, read-out: ED50 value (writhing suppressing effect)): 1.42 mg/kg
- Writhing suppression rate (ICR male mice; Oral, dose 1000 (μg/kg)): + (40 ≤ % <60: +)
- Writhing suppression rate (ICR male mice; Oral, dose 3000 (μg/kg)): ++ (60 ≤ % <80: ++)
- CLint scaled (Metabolic stability test): 9 mL/min/kg

SMILES: NC(=O)c1ccc2c(c1)[C@@]13CCN(C(=O)Cn4cc(C(F)(F)F)cn4)CC[C@@]1(O)[C@@H](C2)N(CC1CC1)CC3 [Example 266, (5aS,6R,11bR)-14-(cyclopropylmethyl)-5a-hydroxy-3-(2-(4-(trifluoromethyl)-1H-pyrazol-1-yl)acetyl)-1,2,3,4,5,5a,6,7-octahydro-6,11b-(epiminoethano)naphtho[1,2-d]azepine-10-carboxamide]
- EC50 (human κ opioid receptors): 74 pM
- CLint scaled (Metabolic stability test): 4.4 mL/min/kg

SMILES: Cc1cc(CCN2CC[C@]34CCN(CC5CC5)[C@H](Cc5ccc(O)cc53)[C@]4(O)CC2)ns1 [Example 177, (5aS,6R,11bS)-14-(cyclopropylmethyl)-3-(2-(5-methylisothiazol-3-yl)ethyl)-2,3,4,5,6,7-hexahydro-6,11b-(epiminoethano)naphtho[1,2-d]azepine-5a,10(1H)-diol]
- EC50 (human κ opioid receptors): 19 pM
- CLint scaled (Metabolic stability test): 9.5 mL/min/kg

SMILES: Cc1cnn(CCN2CC[C@]34CCN(CC5CC5)[C@H](Cc5cc(Br)c(O)cc53)[C@]4(O)CC2)c1 [Example 263, (5aS,6R,11bS)-9-bromo-14-(cyclopropylmethyl)-3-(2-(4-methyl-1H-pyrazol-1-yl)ethyl)-2,3,4,5,6,7-hexahydro-6,11b-(epiminoethano)naphtho[1,2-d]azepine-5a,10(1H)-diol]
- EC50 (human κ opioid receptors): 890 pM
- CLint scaled (Metabolic stability test): 18 mL/min/kg

SMILES: Oc1ccc2c(c1)[C@@]13CCN(CCc4ccccc4)CC[C@@]1(O)[C@@H](C2)N(CC1CC1)CC3 [Example 90, (5aS,6R,11bS)-14-(cyclopropylmethyl)-3-phenethyl-2,3,4,5,6,7-hexahydro-6,11b-(epiminoethano)naphtho[1,2-d]azepine-5a,10(1H)-diol]
- EC50 (human κ opioid receptors): 870 pM
- CLint scaled (Metabolic stability test): 11.6 mL/min/kg

SMILES: Cc1cc2c(cc1O)[C@@]13CCN(C(=O)Cc4ccccn4)CC[C@@]1(O)[C@@H](C2)N(CC1CC1)CC3 [Example 291, 1-((5aS,6R,11bR)-14-(cyclopropylmethyl)-5a,10-dihydroxy-9-methyl-1,2,5,5a,6,7-hexahydro-6,11b-(epiminoethano)naphtho[1,2-d]azepin-3(4H)-yl)-2-(pyridin-2-yl)ethan-1-one]
- EC50 (human κ opioid receptors): 550 pM
- CLint scaled (Metabolic stability test): 8 mL/min/kg

SMILES: COc1c(O)ccc2c1[C@@]13CCN(CCn4cc(C)cn4)CC[C@@]1(O)[C@@H](C2)N(CC1CC1)CC3 [Example 332, (5aS,6R,11bS)-14-(cyclopropylmethyl)-11-methoxy-3-(2-(4-methyl-1H-pyrazol-1-yl)ethyl)-2,3,4,5,6,7-hexahydro-6,11b-(epiminoethano)naphtho[1,2-d]azepine-5a,10(1H)-diol]
- EC50 (human κ opioid receptors): 640 pM
- CLint scaled (Metabolic stability test): 9.2 mL/min/kg

SMILES: Cc1cnn(CCN2CC[C@]34CCN(CC5CC5)[C@H](Cc5cc(C)c(O)cc53)[C@]4(O)CC2)c1 [Example 262, (5aS,6R,11bS)-14-(cyclopropylmethyl)-9-methyl-3-(2-(4-methyl-1H-pyrazol-1-yl)ethyl)-2,3,4,5,6,7-hexahydro-6,11b-(epiminoethano)naphtho[1,2-d]azepine-5a,10(1H)-diol]
- EC50 (human κ opioid receptors): 85 pM
- CLint scaled (Metabolic stability test): 5.8 mL/min/kg

SMILES: Oc1ccc2c(c1)[C@@]13CCN(CCn4cccn4)CC[C@@]1(O)[C@@H](C2)N(CC1CC1)CC3 [Example 45, (5aS,6R,11bS)-3-(2-(1H-pyrazol-1-yl)ethyl)-14-(cyclopropylmethyl)-2,3,4,5,6,7-hexahydro-6,11b-(epiminoethano)naphtho[1,2-d]azepine-5a,10(1H)-diol]
- EC50 (human κ opioid receptors): 170 pM
- Writhing suppression rate (ICR male mice; Subcutaneous, dose 30 (μg/kg)): ++ (60 ≤ % <80: ++)
- CLint scaled (Metabolic stability test): 4.5 mL/min/kg

SMILES: NC(=O)c1ccc2c(c1)[C@@]13CCN(C(=O)Cc4ccccn4)CC[C@@]1(O)[C@@H](C2)N(CC1CC1)CC3 [Example 247, (5aS,6R,11bR)-14-(cyclopropylmethyl)-5a-hydroxy-3-(2-(pyridin-2-yl)acetyl)-1,2,3,4,5,5a,6,7-octahydro-6,11b-(epiminoethano)naphtho[1,2-d]azepine-10-carboxamide]
- CLint scaled (Metabolic stability test): 4.8 mL/min/kg

SMILES: Oc1ccc2c(c1)[C@@]13CCN(CCn4cc(Br)cn4)CC[C@@]1(O)[C@@H](C2)N(CC1CC1)CC3 [Example 61, (5aS,6R,11bS)-3-(2-(4-bromo-1H-pyrazol-1-yl)ethyl)-14-(cyclopropylmethyl)-2,3,4,5,6,7-hexahydro-6,11b-(epiminoethano)naphtho[1,2-d]azepine-5a,10(1H)-diol]
- EC50 (human κ opioid receptors): 28 pM
- CLint scaled (Metabolic stability test): 26 mL/min/kg

SMILES: Cc1cnn(CCN2CC[C@]34CCN(CC5CC5)[C@H](Cc5cc(Cl)c(O)cc53)[C@]4(O)CC2)c1 [Example 326, (5aS,6R,11bS)-9-chloro-14-(cyclopropylmethyl)-3-(2-(4-methyl-1H-pyrazol-1-yl)ethyl)-2,3,4,5,6,7-hexahydro-6,11b-(epiminoethano)naphtho[1,2-d]azepine-5a,10(1H)-diol]
- EC50 (human κ opioid receptors): 180 pM
- CLint scaled (Metabolic stability test): 10.9 mL/min/kg

SMILES: Oc1ccc2c(c1)[C@@]13CCN(CCc4ccc5ccccc5n4)CC[C@@]1(O)[C@@H](C2)N(CC1CC1)CC3 [Example 124, (5aS,6R,11bS)-14-(cyclopropylmethyl)-3-(2-(quinolin-2-yl)ethyl)-2,3,4,5,6,7-hexahydro-6,11b-(epiminoethano)naphtho[1,2-d]azepine-5a,10(1H)-diol]
- EC50 (human κ opioid receptors): 40 pM
- CLint scaled (Metabolic stability test): 14.3 mL/min/kg

SMILES: CC1C[C@@]2(O)[C@H]3Cc4ccc(O)cc4[C@]2(CCN1C(=O)Cc1ccccn1)CCN3CC1CC1 (stereo partly drawn) [Example 281, 1-((5aS,6R,11bR)-14-(cyclopropylmethyl)-5a,10-dihydroxy-4-methyl-1,2,5,5a,6,7-hexahydro-6,11b-(epiminoethano)naphtho[1,2-d]azepin-3(4H)-yl)-2-(pyridin-2-yl)ethan-1-one]
- EC50 (human κ opioid receptors): 140 pM
- CLint scaled (Metabolic stability test): 13.7 mL/min/kg

SMILES: Cc1cnn(CCN2CC[C@]34CCN(CC5CC5)[C@H](Cc5cc(I)c(O)cc53)[C@]4(O)CC2)c1 [Example 298, (5aS,6R,11bS)-14-(cyclopropylmethyl)-9-iodo-3-(2-(4-methyl-1H-pyrazol-1-yl)ethyl)-2,3,4,5,6,7-hexahydro-6,11b-(epiminoethano)naphtho[1,2-d]azepine-5a,10(1H)-diol]
- CLint scaled (Metabolic stability test): 22.5 mL/min/kg

SMILES: Cc1cnn(C[C@@H](C)N2CC[C@]34CCN(CC5CC5)[C@H](Cc5ccc(O)cc53)[C@]4(O)CC2)c1 [Example 229, (5aS,6R,11bS)-14-(cyclopropylmethyl)-3-((R)-1-(4-methyl-1H-pyrazol-1-yl)propan-2-yl)-2,3,4,5,6,7-hexahydro-6,11b-(epiminoethano)naphtho[1,2-d]azepine-5a,10(1H)-diol]
- EC50 (human κ opioid receptors): 25 pM
- CLint scaled (Metabolic stability test): 5.1 mL/min/kg

Reference: patent US20230087342A1, “AZEPANE DERIVATIVE” (Nippon Chemiphar Co., Ltd., priority 2019, published 2023)
